Values quoted from earlier work as cited in patent publication US5470884A, “Anti-acne compositions” (Procter & Gamble, priority 1994, dated 1995).

System: skin
Settings: excessive drying, scaling, swelling, burning, peeling, redness, allergic contact dermatitis, sensitization

## O=C(OOC(=O)c1ccccc1)c1ccccc1 [benzoyl peroxide]
  skin irritation: very irritating to the skin
